Assay [1] has as its system normal human embryonic kidney cells (HEK-293). Nature of the assay: Sulforhodamine B (SRB) assay, normal cells HEK-293. The assay is classed as cell-based. The settings on record: HEK293, 48 h, normal cell line, mean ± SD (n = 3). From the text:
(§1) Roswell Park Memorial Institute (RPMI)-1640 medium, Dulbecco’s modified eagle medium high glucose (DMEM; Gibco) supplemented with 10% Fetal Bovine Serum (FBS; Gibco, and 1% antibiotic-antimycotic (Gibco; Anti-Anti 100x), phosphate-buffered saline (PBS; Gibco), 0.25% trypsin (Gibco), sodium pyruvate (Sigma-Aldrich), HEPES (Gibco). Human cancer cell lines A549 (lung carcinoma), MCF-7 (breast carcinoma), MDAMB-231 (breast carcinoma), A375 (melanoma), and normal human embryonic kidney cells (HEK-293) were taken from Dr. Sheikh Tasduq Abdullah and Dr. Boobalan Gopu (CSIR-IIIM).
(§2) Their activity was tested against human cancer cell lines A549 (lung carcinoma), MCF-7 (breast carcinoma), MDAMB-231 (breast carcinoma), and A375 (melanoma). The selectivity index (SI) was calculated against normal human embryonic kidney cells (HEK-293) to determine cytotoxic selectivity. The cells (7 × 10^3 cells/well) were seeded on 96 well plates, followed by overnight incubation. Multiple concentrations (50 µM, 20 µM, 10 µM, 5 µM, and 1 µM) of compounds were used to treat the cells, except for control wells that contained only cells with media. After 48 h of incubation, the cells attached to wells were fixed with 50 µL of chilled 50% TCA, and the plate was kept at 4°C for 1 h, as described previously ([Malik et al., 2023]; [Kumar et al., 2024]). The plate was washed (3–4 times) with distilled water (250 µL/well) and air-dried for 24 h. The next day, 100 µL of 0.4% SRB dye was added to each well, and the cells were incubated at room temperature for 1 h. The plate contents were discarded and washed 3 times with 1% glacial acetic acid (250 µL/well), followed by one last wash with distilled water and air drying for another 24 h. Subsequently, 100 µL of Tris base (10 mM, pH 10.5) was added to each well to dissolve the dye bound to fixed cells. The dissolved dye indicating growth inhibition was quantified by calculating optical density at 540 nm via microplate reader (Tecan infinite M200PRO, Switzerland). The IC50 values were calculated using GraphPad Prism Software Version 5.0. A favorable Selectivity Index (SI) is the most relevant parameter to detect anti-cancer potential in vitro as it indicates drug safety against cancer cells versus normal cells, efficacy of the drug, and selectivity. The selectivity index is calculated by using the formula. Selective Index=IC50 in Normal cells/IC50 in Cancerous cell lines
Background: The SRB assay estimates cell density from bound dye.

The subject of assay [2] is A549 (lung carcinoma). Briefly: Sulforhodamine B (SRB) assay, A549. It is filed as cell-based. The note with it: Homo sapiens, A549, 48 h, read-out: IC50 (µM) A549.
Text: as §1, §2

Assay [3] deals with A375 (melanoma). Briefly: Sulforhodamine B (SRB) assay, A375. The note with it: Homo sapiens; for IC50: A-375, 48 h, read-out: IC50 (µM) A375. The assay is classed as cell-based.
Text: as §1, §2

The test system of assay [4] is MCF-7 (breast carcinoma). Briefly: Sulforhodamine B (SRB) assay, MCF-7. It is filed as cell-based. The note with it: Homo sapiens, MCF7, 48 h, read-out: IC50 (µM) MCF-7.
Text: as §1, §2

Assay [5] deals with MDA-MB 231 (breast carcinoma). Briefly: Sulforhodamine B (SRB) assay, MDA-MB 231. The note with it: Homo sapiens, MDA-MB-231, 48 h, read-out: IC50 (µM) MDA-MB 231. It is filed as cell-based.
Text: as §1, §2

The test system of assay [6] is A375 cells. Briefly: Colony formation assay. The assay is classed as cell-based, human. How it is done:
A colony formation assay was performed to assess the ability of 3g to inhibit the reproductive and colony forming ability of A375 cells. The cells were seeded into a 6-well plate with a 1 × 10^3 cells/well density. Next day, the cells were treated with multiple concentrations of 3g, such as 30 µM, 20 µM, 10 µM and 1 µM, in fresh media for 48 h. The media was changed on alternate days till day 10, till untreated (negative control) became confluent. On day 10, the cells were washed with PBS, and colonies were observed under a microscope. The cells/colonies were fixed with 100% methanol for 20 min at 4°C and stained with 0.5% solution of crystal violet for 30 min at room temperature, as described previously ([Kumar et al., 2024]). Subsequently, the dye was removed from plates, and excess dye was rinsed by washing it with distilled water (3–5 times), followed by air drying. The colonies were counted using ImageJ software, and photographs were taken with a digital camera. The percentage of colonies formed was calculated using the formula mentioned below. Colony formation rate (%)=Number of colonies in treatment group/Number of colonies in control group×100

The test system of assay [7] is A375 cells. Nature of the assay: Wound healing (cell scratch) assay. The assay is classed as cell-based, human. How it is done: Cell scratch assay, also known as wound healing assay, was performed to evaluate the impact of 3g on migration of A375 cells. The cells were seeded into the 6-well plate with […] density. The next day, in fresh media, a horizontal scratch was administered in the 90% confluent monolayer using a sterile 200 µL tip, as described previously, with slight modification ([Kumar et al., 2024]). The cells were incubated for 48 h with multiple concentrations of 3g such as 30 µM, 20 µM, 10 µM and 1 µM. Wound healing was observed using a Digital Inverted Fluorescence Microscope (Life Technologies EVOS FLc). The percentage of wound healing was calculated as. Wound Closure (%)=[…]

The term IC50 denotes the concentration at which inhibition is half-maximal. With `CCOC(=O)C1=C(C)NC(=S)NC1c1c2c(c(OC)c(OC)c1OC)-c1ccc(OC)c(=O)cc1[C@H](NC(C)=O)CC2` (stereo partly drawn) [Compound 3a], the IC50 in assay [1] was 29.66 ± 0.07 µM; in assay [2], over 50 µM; in assay [3], over 50 µM; in assay [4] it was 40.6 ± 0.91 µM; in assay [5] it was over 50 µM.
Turning to `CCOC(=O)C1=C(C)NC(=N)NC1c1c2c(c(OC)c(OC)c1OC)-c1ccc(OC)c(=O)cc1[C@H](NC(C)=O)CC2` (stereo partly drawn) [Compound 3b, Ethyl 4-((R)-7-acetamido-1,2,3,10-tetramethoxy-9-oxo-5,6,7,9-tetrahydrobenzo [a]heptalen-4-yl)-2-imino-6-methyl-1,2,3,4-tetrahydropyrimidine-5-carboxylate], the IC50 was 38.3 ± 1.36 µM in assay [1]; over 50 µM in assay [2]; over 50 µM in assay [3]; 44.7 ± 0.64 µM in assay [4]; over 50 µM in assay [5].
`COc1c(OC)c2c(c(C3NC(=O)NC(C)=C3C(=O)Oc3ccccc3)c1OC)CC[C@@H](NC(C)=O)c1cc(=O)c(OC)ccc1-2` (stereo partly drawn) [Compound 3c, phenyl 4-((R)-7-acetamido-1,2,3,10-tetramethoxy-9-oxo-5,6,7,9-tetrahydrobenzo [a]heptalen-4-yl)-6-methyl-2-oxo-1,2,3,4-tetrahydropyrimidine-5-carboxylate]: the IC50 in assay [1] is 35.6 ± 2.97 µM; in assay [2], over 50 µM; in assay [3], over 50 µM; in assay [4] it was 44.8 ± 0.68 µM; in assay [5], over 50 µM.
Turning to `CCOC(=O)C1=C(C(Cl)(Cl)Cl)NC(=O)NC1c1c2c(c(OC)c(OC)c1OC)-c1ccc(OC)c(=O)cc1[C@H](NC(C)=O)CC2` (stereo partly drawn) [Compound 3d, Ethyl 4-((R)-7-acetamido-1,2,3,10-tetramethoxy-9-oxo-5,6,7,9-tetrahydrobenzo [a]heptalen-4-yl)-2-oxo-6-(trichloromethyl)-1,2,3,4-tetrahydropyrimidine-5-carboxylate], the concentration for half-maximal inhibition (IC50) in assay [1] was 36.1 ± 1.79 µM; in assay [2] it was over 50 µM; in assay [3], over 50 µM; in assay [4], 43.79 ± 0.33 µM; in assay [5] it was over 50 µM.
As for `CCOC(=O)C1=C(c2cc(F)c(Cl)nc2Cl)NC(=O)NC1c1c2c(c(OC)c(OC)c1OC)-c1ccc(OC)c(=O)cc1[C@H](NC(C)=O)CC2` (stereo partly drawn) [Compound 3e, Ethyl 4-((R)-7-acetamido-1,2,3,10-tetramethoxy-9-oxo-5,6,7,9-tetrahydrobenzo [a]heptalen-4-yl)-6-(2,6-dichloro-5-fluoropyridin-3-yl)-2-oxo-1,2,3,4-tetrahydropyrimidine-5-carboxylate], the IC50 in assay [1] is 40.3 ± 1.71 µM; in assay [2], over 50 µM; in assay [3], over 50 µM; in assay [4], 45.1 ± 0.73 µM; in assay [5] it was over 50 µM.
For the compound `CCOC(=O)C1=C(C(F)(F)C(F)(F)F)NC(=O)NC1c1c2c(c(OC)c(OC)c1OC)-c1ccc(OC)c(=O)cc1[C@H](NC(C)=O)CC2` (stereo partly drawn) [Compound 3f, Ethyl 4-((R)-7-acetamido-1,2,3,10-tetramethoxy-9-oxo-5,6,7,9-tetrahydrobenzo [a]heptalen-4-yl)-2-oxo-6-(perfluoroethyl)-1,2,3,4-tetrahydropyrimidine-5-carboxylate], the concentration for half-maximal inhibition (IC50) in assay [1] was 17.8 ± 1.3 µM; in assay [2] it was over 50 µM; in assay [3] it was 28.3 ± 2.19 µM; in assay [4] it was 26.4 ± 2.79 µM; in assay [5] it was 46.6 ± 0.86 µM.
The inhibition is how much of the control response was suppressed. Turning to `CCOC(=O)C1=C(C(F)(F)C(F)(F)F)NC(=O)NC1c1c2c(c(OC)c(OC)c1OC)-c1ccc(OC)c(=O)cc1[C@@H](NC(C)=O)CC2` (stereo partly drawn) [Compound 3g, Ethyl 4-((S)-7-acetamido-1,2,3,10-tetramethoxy-9-oxo-5,6,7,9-tetrahydrobenzo [a]heptalen-4-yl)-2-oxo-6-(perfluoroethyl)-1,2,3,4-tetrahydropyrimidine-5-carboxylate], the “percentage of colony growth formation” value in assay [6] (20 µM, 48 h treatment, A375 cells, untreated control 100%) came to 37.5%. The “inhibition of colony formation” value in assay [6] (melanoma cells (abstract)) is recorded as “up to 62.5%”. Further, the IC50 is 15.8 ± 0.81 µM in assay [1]; over 50 µM in assay [2]; 10.3 ± 0.56 µM in assay [3]; 15.7 ± 0.39 µM in assay [4]; 24.9 ± 2.7 µM in assay [5]. In assay [7] (20 µM, 48 h, A375 cells, untreated control 84%), the “percentage of wound closure” value turned out to be 69%. Besides, the “reduction of migration potential” value in assay [7] (melanoma cells (abstract)) was 69%. Also, in assay [3] (A-375, read-out: growth inhibition), the inhibition at 20 µM was found to be 60%.
In the case of `CCOC(=O)C1=C(OCC)NC(=O)NC1c1c2c(c(OC)c(OC)c1OC)-c1ccc(OC)c(=O)cc1[C@H](NC(C)=O)CC2` (stereo partly drawn) [Compound 3h, ethyl 4-((R)-7-acetamido-1,2,3,10-tetramethoxy-9-oxo-5,6,7,9-tetrahydrobenzo [a]heptalen-4-yl)-6-ethoxy-2-oxo-1,2,3,4-tetrahydropyrimidine-5-carboxylate], the concentration for half-maximal inhibition (IC50) in assay [1] was 26.6 ± 2.65 µM; in assay [2], over 50 µM; in assay [3], 35.2 ± 2.79 µM; in assay [4], 49.9 ± 2.72 µM; in assay [5], over 50 µM.
As to `COC1=C(C(=O)C2CC2)C(c2c3c(c(OC)c(OC)c2OC)-c2ccc(OC)c(=O)cc2[C@H](NC(C)=O)CC3)NC(=O)N1` (stereo partly drawn) [Compound 3i, N-((7R)-4-(5-(cyclopropanecarbonyl)-6-methoxy-2-oxo-1,2,3,4-tetrahydropyrimidin-4-yl)-1,2,3,10-tetramethoxy-9-oxo-5,6,7,9-tetrahydrobenzo [a]heptalen-7-yl) acetamide], the IC50 in assay [1] was 39.5 ± 1.36 µM; in assay [2], over 50 µM; in assay [3] it was over 50 µM; in assay [4] it was over 50 µM.
Take `COC1=C(C(=O)C2CC2)C(c2c3c(c(OC)c(OC)c2OC)-c2ccc(OC)c(=O)cc2[C@@H](NC(C)=O)CC3)NC(=O)N1` (stereo partly drawn) [Compound 3j, N-((7S)-4-(5-(cyclopropanecarbonyl)-6-methoxy-2-oxo-1,2,3,4-tetrahydropyrimidin-4-yl)-1,2,3,10-tetramethoxy-9-oxo-5,6,7,9-tetrahydrobenzo [a]heptalen-7-yl) acetamide]: the IC50 in assay [1] was 39 ± 0.79 µM; in assay [2] it was over 50 µM; in assay [3] it was over 50 µM; in assay [4], over 50 µM; in assay [5] it was over 50 µM.

For the origin of these results see paper PMC12246756 (Frontiers in Pharmacology, 2025).
